Reference: patent publication US7989495B2, “Compositions and methods for inhibiting NF-κB mediated tumorigenicity and adhesion dependent survival of cancer cells” (University of Utah Research Foundation, priority 2002, dated 2011)
“Also recorded” adds a separate entry of the source.

Assays:
HT-29 xenografts = assay: Subcutaneous colon cancer xenograft in athymic mice; assay type: in vivo; details: for tumor volumes, treatment group compared with control group: HT-29 subcutaneous tumors, 1 mg/kg twice weekly for 28 days, vs DMSO
Protocol: DLD-1, HCT-116, and HT-29 cells were cultured for 6 days in soft agar in the presence of DMSO (control), 10 μM BAY 11-7082, or 10 μM BAY 11-7085. The data points represent the means of colony counts per field (20×) performed in 5 different regions of the culture dishes. The data shown represent a typical result of two separate experiments. FIGS. 2B,C, show athymic mice received subcutaneous injections of HT-29 (B) or HCT-116 (C) cells, followed by […] of BAY 11-7085 (dark bars) or DMSO (white bars) intraperitoneally twice weekly. The bars represent the 25-75% ranges of the tumor volumes and the horizontal lines in the bars are the medians. Using the Kruskal-Wallace statistical test to compare the median tumor volumes between BAY 11-7085 and DMSO yielded a p-value of 0.005 for HT-29 cells but >0.05 for HCT-116 cells.
HT-29 and HCT-116 cells were harvested in 0.25% trypsin-PBS-EDTA, washed once in media and PBS, and resuspended in PBS at 1 million cells per 200 μL. One million cells were injected either subcutaneously in the backs or intraperitoneally in 5 week old female nu/nu athymic mice (Charles River Labs). For the mice with subcutaneous tumors, the tumors were allowed to establish themselves for 10 days after which they were randomized to BAY 11-7085 or DMSO. For the mice with intraperitoneal tumors, the mice received DMSO or BAY 11-7085 (5 mg/kg) 24 hours before the cancer cells were injected intrapentoneally. All mice received BAY 11-7085 (5 mg/kg) or an equal volume of DMSO (˜200 μL) twice weekly for 21-32 days. Subcutaneous tumor sizes were determined by measuring the length and width with calipers. These studies were approved by the U. of Utah Institutional Review Board and Institutional Animal Care and Use Committee and performed in the Animal Resource Center. Mice were euthanized when they experienced a greater than 10% loss in body weight or if they appeared ill. Post-mortem examinations included sectioning of kidney, lung, and liver tissues which were stained with hematoxylin and eosin followed by examination for tissue toxicity/damage by an experienced mouse pathologist (E.J.E.) who was blinded to therapy.
(Wang et al., 1999) However, BAY 11-7082 or BAY 11-7085 alone inhibit colon cancer xenograft growth in athymic mice. HC-116, and HT-29 cell lines were used to generate subcutaneous tumors in athymic female mice. The mice were subsequently randomized to be treated with vehicle (DMSO) alone or BAY 11-7085 1 mg/kg twice weekly for 28 days.

[1] = test system: transiently suspended DLD-1 cells; assay: Apoptosis (annexin V) of transiently suspended cells allowed to readhere; assay type: cell-based
Protocol: The transiently suspended cells were lysed and allowed to bind to DNA oligonucleotides, containing the NF-κB consensus binding site, that were immobilized to 96-well plates. NF-κB protein bound to the oligonucleotides was detected by an antibody to the p65 subunit that only recognized p65 that is bound to DNA. The positive control was HeLa cells that were stimulated with TNFα A control was performed using excess free NF-κB oligonucleotides (Competitor). […] NF-κB binding activity was determined by the TransAM assay as in FIG. 5A. […] The data shown represent typical results of three separate experiments. […] An immunoblot for COX-2 was performed.
Single cell suspensions were plated at 100,000 cells per well in 24-well plates in media containing DMSO, BAY 11-7082, BAY 11-7085, or MG-132 for 8-24 hours in an incubator. Alternatively, DMSO, BAY 11-7082, BAY 11-7085, or MG-132 were added to cells that were confluent and adherent for several days. The nonadherent cells were aspirated off with the media and spun for 3 minutes at 2,000 rpm in 15 ml polypropylene tubes. The adherent cells were washed twice with PBS, dispersed in trypsin, and spun down for 3 minutes at 2,000 rpm in 15 ml polypropylene tubes. The nonadherent and adherent cells were resuspended in 1× binding buffer (10 mM HEPES/NaOH, pH 7.4, 140 mM NaCl, and 2.5 mM CaCl2) to a final concentration of 10^6 cells/ml. 100 μl of the cell solution were transferred to a 5 ml culture tube and incubated with 5 μl of annexin V-FITC-conjugated monoclonal antibody (Pharmingen) and 10 μl of propidium iodide (from a 50 μg/ml stock solution made in PBS) in the dark at 25° C. for 15 minutes. 400 μl of binding buffer was added to each tube and the cells were analyzed by flow cytometry immediately. The percent of apoptosis was determined as the percent of annexin V-positive, propidium iodide-negative cells of the total cells counted.
Since trypsin can activate protease-activated receptor-2 in colon cancer cell lines, which then results in increased cell proliferation, (Darmoul et al., 2001) NF-κB activation was determined in adherent and confluent DLD-1, HCT-116, Caco-2 and HT-29 cells that were removed from plastic dishes by trypsin or scraping. […] To determine whether the transient activation of NF-κB caused by cell readhesion would render all of the colon cancer cells tested more susceptible to BAY 11-7085-induced apoptosis, DLD-1, HCT-116, Caco-2 and HT-29 colon cancer cell lines were transiently suspended, treated with BAY 11-7085 and allowed to readhere.

[2] = test system: TNFα-induced NF-κB activation; details: Pierce et al., 1997; cited from earlier work
JNK/SAPK and p38 = details: Pierce et al., 1997; cited from earlier work
arthritis = details: Pierce et al., 1997; cited from earlier work

SMILES	tumor volumes, treatment group compared with control group (HT-29 xenografts)	share of transiently suspended, readhering cells that became apoptotic [1]	effect on TNFα-induced NF-κB activation [2]	effect on JNK/SAPK and p38 (JNK/SAPK and p38)	effect on NF-κB and arthritis in rodent models (arthritis)	p-value, Kruskal-Wallace test of median tumor volumes vs DMSO (HT-29 xenografts; HT-29, intraperitoneally twice weekly)	tumor volumes, treatment group compared with control group (HT-29 xenografts; 1 mg/kg)	in vitro apoptotic threshold during readhesion [1] [µM]	BAY 11-7085-induced apoptosis during readhesion ([1]; transiently suspended, treated, allowed to readhere 8 hours)
Cc1ccc(S(=O)(=O)/C=C/C#N)cc1 [BAY 11-7082, (2E)-3-(tolysulfonyl)-2-propenenitrile]	reduce tumor volumes	vast majority	inhibit	activate JNK/SAPK and p38	inhibit NF-κB and arthritis in rodent models				
CC(C)(C)c1ccc(S(=O)(=O)/C=C/C#N)cc1 [BAY 11-7085, (2E)-3-[4-(tertiarybutylphenyl)sulfonyl]-2-propenenitrile]		vast majority	inhibit	activate JNK/SAPK and p38	inhibit NF-κB and arthritis in rodent models	0.005	statistically significant overall reduction in the tumor volumes; also recorded: reduce tumor volumes	> 20	showed the same propensity for BAY 11-7085-induced apoptosis
